Assay results published in ChEMBL document CHEMBL1156829 (Proc Natl Acad Sci U S A, 2008).

Tests used:
Plasmodium falciparum [1] = assay: NOVARTIS: Inhibition of Plasmodium falciparum 3D7 (drug-susceptible) proliferation in erythrocyte-based infection assay; format: functional, organism-based; conditions: Plasmodium falciparum, 3D7
Plasmodium falciparum [2] = assay: NOVARTIS: Inhibition of Plasmodium falciparum W2 (drug-resistant) proliferation in erythrocyte-based infection assay; format: functional, organism-based; conditions: Plasmodium falciparum, W2; read-out: EC50
[3] = NOVARTIS: Cytotoxicity against human hepatocellular carcinoma cell line (Huh7); format: toxicity, cell-based, Huh-7; conditions: Huh7 cells (hepatocellular carcinoma cell line)

Row | SMILES | EC50 (Plasmodium falciparum [1]) | EC50 (Plasmodium falciparum [2]) | CC50 [3]
1 | O=c1[nH]n(CC2COC(c3ccccc3)O2)c(=O)c2ccccc12 (centres undefined) | 678 nM | 488 nM | > 100000 nM
2 | O=C(CCC1CCCC1)NC1CCC(Nc2ccnc3cc(Cl)ccc23)CC1 (centres undefined) | 1010 nM | 875 nM | > 3890 nM
3 | CCC(C)(C#CCN1CCCC1)OC(C)=O (centres undefined) | > 1050 nM | > 1250 nM | > 10000 nM
4 | CCCCC(CC)C(=O)N(CCCC(C)Nc1cc(OC)cc2cccnc12)Cc1ccc(OC)c(OC)c1 (centres undefined) | 442 nM | 328 nM | > 10000 nM
5 | Cc1ccc(N=C2S/C(=C\c3ccccc3)C(=O)N2c2ccc(C)cc2)cc1 | > 1740 nM | 404 nM | > 10000 nM
6 | COc1ccc2nc(NC(N)=NC(=O)Nc3ccccc3)nc(C)c2c1 | 688 nM | 896 nM | 34800 nM
7 | CC(=O)N1c2ccccc2NC2=C(C(=O)CCC2)C1c1ccc([N+](=O)[O-])cc1 (centres undefined) | > 1250 nM | 26.7 nM | > 10000 nM
8 | CCC(C(=O)N(C)CCCNc1ccnc2cc(Cl)ccc12)c1ccccc1 (centres undefined) | 311 nM | 310 nM | 6170 nM
9 | CCCCCCCCCn1c2c(c(=N)c3c1CCC3)CCCC2 | 132 nM | 185 nM | 3740 nM
10 | COc1ccc(OC)c(C2C3=C(CC(C)(C)CC3=O)N(c3ccc(Cl)c(Cl)c3)C3=C2C(=O)CC(C)(C)C3)c1 | 430 nM | 546 nM | > 100000 nM
11 | COC(=O)C1C(=O)C2=C(CC1C)NC(=O)CC2c1cccc(Cl)c1Cl (centres undefined) | 814 nM | 617 nM | > 100000 nM
12 | O=[N+]([O-])c1ccc(S(=O)(=O)N2CCN(C(=S)NCc3ccccc3)CC2)cc1 | 79.6 nM | 38 nM | > 100000 nM
13 | CN(c1ncnc2sc3c(c12)CCCC3)C1CCCCC1 | > 921 nM | < 37.4 nM | > 10000 nM
14 | CC(C)CN1C(=O)c2ccccc2C(C(=O)Nc2ccc(CN3CCC(C)CC3)cc2)C1c1cccs1 (centres undefined) | 2050 nM | 1130 nM | > 100000 nM
15 | CCCN1CCN(C(=O)CCNC(=O)Cn2cnc3ccccc3c2=O)CC1 | > 1250 nM | 1590 nM | > 10000 nM
16 | FC(F)(F)c1cccc(CNC2CCN(CCc3ccccc3)CC2)c1 | 174 nM | 487 nM | 7390 nM
17 | c1ccc(CCNC2CCN(Cc3ccccc3)CC2)cc1 | 1470 nM | 500 nM | 43500 nM
18 | CN1CCN(c2cc(-c3ccncc3)nc(-c3cccnc3)n2)CC1 | 511 nM | 494 nM | > 10000 nM
19 | COc1ccc(NC2=C(c3ccc(OC)cc3)C(=O)c3ccccc32)cc1 | 437 nM | 423 nM | > 100000 nM
20 | C#CC(C)(C)NS(=O)(=O)c1cc(-c2nnc(Nc3cccc(C)c3)c3ccccc23)ccc1C | 1040 nM | > 1250 nM | > 10000 nM
21 | Cc1c(C)c2c(c(C)c1O)CC[C@](C)(CN1CCN(c3cc(N4CCCC4)nc(N4CCCC4)n3)CC1)O2 | 175 nM | 384 nM | 42000 nM
22 | COc1ccc(C(=O)N2C(C(=O)NCCC(C)C)CSC2c2ccc(C(C)(C)C)cc2)cc1 (centres undefined) | 797 nM | 1120 nM | > 4480 nM
23 | COc1ccc(-n2nc(C(=O)NCC(=O)Nc3nc4ccccc4s3)c3ccccc3c2=O)cc1Cl | > 1250 nM | > 1130 nM | > 10000 nM

Row | SMILES | EC50 (Plasmodium falciparum [1]) | EC50 (Plasmodium falciparum [2]) | CC50 [3]
24 | CCN(CC)CCNc1ncnc2c1[nH]c1ccc(F)cc12 | 277 nM | 169 nM | 31500 nM
25 | Cc1ccc(-c2nc3cc(NC(=O)c4ccc([N+](=O)[O-])o4)ccc3o2)cc1Br | 6920 nM | 6490 nM | 74000 nM
26 | COc1ccc(C2Sc3ccccc3N=C3C2=C(O)c2ccccc23)cc1 (centres undefined) | 238 nM | 174 nM | > 100000 nM
27 | Clc1ccc(Nc2nc(Nc3ccc(Cl)cc3)c3ccccc3n2)cc1 | 148 nM | 110 nM | 19600 nM
28 | CCCCC(=O)N(CCCC(C)Nc1cc(OC)cc2cccnc12)Cc1ccccc1OC (centres undefined) | 348 nM | 35 nM | 1060 nM
29 | O=C(O)CC12CC3CC(C1)CC(c1ccc([N+](=O)[O-])cc1)(C3)C2 | > 883 nM | > 1250 nM | > 10000 nM
30 | Cc1cc(C)n(CC(O)Cn2c3ccc(Br)cc3c3cc(Br)ccc32)n1 (centres undefined) | 1040 nM | 284 nM | 45400 nM
31 | O=C(Oc1ccc(N2C(=O)c3ccc([N+](=O)[O-])cc3C2=O)cc1)c1ccco1 | > 10000 nM | > 10000 nM | > 100000 nM
32 | O=C(NCCCCNc1ccnc2cc(Cl)ccc12)c1ccc(Br)cc1 | 218 nM | 291 nM | > 8730 nM
33 | CO[C@H]1O[C@@H]2COC(c3ccccc3)O[C@H]2[C@@H](O)[C@@H]1OCc1ccccc1 (some centres undefined) | 376 nM | 555 nM | > 13800 nM
34 | O=C(CN1CCN(C(=O)c2ccco2)CC1)Nc1ccccc1Br | 358 nM | 188 nM | > 100000 nM
35 | COc1cc(NC(C)CCCN(Cc2ccccc2OC)S(=O)(=O)c2ccc(Br)cc2)c2ncccc2c1 (centres undefined) | 945 nM | 427 nM | 4580 nM
36 | Cc1ccc(C(OCC(C)(C)C[N+](C)(C)C)c2ccccc2)cc1 (centres undefined) | 265 nM | 629 nM | 23300 nM
37 | Cn1ncnc2c(=O)n(C)c(=O)nc1-2 | > 12500 nM | 481 nM | 199 nM
38 | CCOC(=O)CN1C(=O)c2ccccc2Sc2ncccc21 | > 1120 nM | > 644 nM | > 10000 nM
39 | CCOC(=O)C1=C(C)NC2=C(C(=O)CC(c3ccc(OC)c(OC)c3)C2)C1c1ccc(F)cc1 (centres undefined) | 18.3 nM | 12.4 nM | > 100000 nM
40 | COCCOC(=O)C1=C(C)NC2=C(C(=O)CC(c3ccc(OC)c(OC)c3)C2)C1c1cccc(Cl)c1Cl (centres undefined) | 178 nM | 58 nM | > 100000 nM
41 | O=C1c2cccc(N3CCCC(C(=O)N4CCCCC4c4cccnc4)C3)c2C(=O)N1Cc1ccc(C(F)(F)F)cc1 (centres undefined) | 3410 nM | 1530 nM | > 100000 nM
42 | Cc1noc(C)c1S(=O)(=O)N(CC(C)C)C(C(=O)NC(CN1CCCC1)c1ccccc1)c1ccccc1 (centres undefined) | 775 nM | 1660 nM | 2820 nM
43 | COc1cc(OC)c(Br)c(-n2c(C(C)N(CCC(C)C)C(=O)c3ccccc3C)nc3ccccc3c2=O)c1 (centres undefined) | > 1250 nM | < 33.7 nM | > 10000 nM
44 | CC(C)CNC(=O)c1cnc(NCCC2CCCN2C)nc1NCCc1ccccc1 (centres undefined) | 699 nM | > 1250 nM | > 10000 nM
45 | O=C(O)CSC(C(=O)Nc1ccc(Cl)cc1)c1ccccc1 (centres undefined) | > 1620 nM | > 1360 nM | > 10000 nM
46 | C=CCSc1nc2sc3c(c2c(=O)n1-c1ccccc1)CCN(C)C3 | 632 nM | 228 nM | > 100000 nM

Row | SMILES | EC50 (Plasmodium falciparum [1]) | EC50 (Plasmodium falciparum [2]) | CC50 [3]
47 | O=C(Nc1nc(-c2ccccn2)cs1)c1ccc(Oc2ccc(C(=O)Nc3nc(-c4ccccn4)cs3)cc2)cc1 | 2240 nM | 602 nM | > 100000 nM
48 | COc1ccccc1-n1c(C=Cc2cc(Br)ccc2O)nc2ccccc2c1=O | 2070 nM | 1240 nM | 19400 nM
49 | Cn1cc(C(c2cccs2)c2cn(C)c3ccccc23)c2ccccc21 | 1370 nM | 610 nM | 52300 nM
50 | N#Cc1c2c(c(N3CCN(C4CCCCC4)CC3)n3c1nc1ccccc13)CCC2 | 183 nM | 511 nM | > 100000 nM
51 | Cn1c(=O)c2c(nc3n(CCCO)c(C45CC6CC(CC(C6)C4)C5)cn23)n(C)c1=O | > 1250 nM | 1540 nM | > 10000 nM
52 | CN(Cc1cc2ccc(F)cc2n(CCN2CCCCC2)c1=O)CC1COCCO1 (centres undefined) | > 12500 nM | 4620 nM | > 100000 nM
53 | O=C(Nc1ccc(-c2nc3ccc(NC(=O)c4ccc(Br)cc4)cc3[nH]2)cc1)c1ccc(Br)cc1 | 315 nM | 413 nM | 4190 nM
54 | CCOC(=O)c1ccc(NC2=C(N3CCCCC3)C(=O)c3ccccc3C2=O)cc1 | 243 nM | 334 nM | > 80500 nM
55 | Clc1ccc2[nH]c3c(NCCC4=CCCCC4)ncnc3c2c1 | 988 nM | 2000 nM | 15800 nM
56 | COc1ccc(/C=C/C(=O)NC(=O)c2ccccc2O)cc1OC | 1080 nM | 1130 nM | > 10000 nM
57 | CC1CC(=O)NN=C1c1ccc(NC(=O)c2ccccc2)cc1 (centres undefined) | 305 nM | 270 nM | > 10000 nM
58 | O=c1c2[nH]c3ccccc3c2ncn1Cc1ccc2c(c1)OCO2 | > 12500 nM | 2000 nM | > 100000 nM
59 | O=C(NCCCCNc1ccnc2cc(Cl)ccc12)C1CCCCC1 | 311 nM | 198 nM | > 13300 nM
60 | CN(C)c1ccc(/C=C2/SC(=Nc3ccccc3)NC2=O)cc1 | 109 nM | 200 nM | > 10000 nM
61 | CN1CCN(c2nc(NN=Cc3cc(I)ccc3O)nc(Nc3ccc([N+](=O)[O-])cc3)n2)CC1 | 383 nM | 316 nM | 47700 nM
62 | CCCOC(=O)C1=C(C)NC2=C(C(=O)CC(c3ccc(OC)cc3)C2)C1c1cccc(F)c1 (centres undefined) | 72.4 nM | 32.9 nM | > 100000 nM
63 | CCCCCCN(C(=O)c1ccc(C(C)(C)C)cc1)C(CC)c1nc2cc(Cl)ccc2c(=O)n1CC (centres undefined) | 954 nM | 1010 nM | > 10000 nM
64 | O=C1CC(c2ccc([N+](=O)[O-])cc2)C2=C(CC(c3ccc(F)cc3)CC2=O)N1 (centres undefined) | 2020 nM | 1070 nM | > 100000 nM
65 | O=C(CCl)Nc1ccc(CN2CCCCC2)cc1 | 976 nM | 911 nM | 34100 nM
66 | COC(=O)C1=C(C)N/C(=C\c2cc(C)n(-c3cc(Cl)ccc3Cl)c2C)C1=O | 1520 nM | 1010 nM | > 10000 nM
67 | CN(CCCNc1ccnc2cc(Cl)ccc12)C(=O)c1cc(Cl)cc(Cl)c1 | 235 nM | 460 nM | > 10000 nM
68 | COc1ccc2nc3ccccc3c(N)c2c1 | 133 nM | 176 nM | 5720 nM
